From patent US20230373930A1, “AMINOIMIDAZOLE FPR2 AGONISTS” (BRISTOL-MYERS SQUIBB COMPANY, priority 2020, published 2023)

Assays:
[1] = target: T1, human FPR1 (Homo sapiens, UniProt P21462); experiment: FPR1 cyclic adenosine monophosphate (cAMP) assay; type: cell-based; conditions: CHO cells overexpressing human FPR1; forskolin 10 μM; inhibition of cAMP production; HTRF; read-out: hFPR1 cAMP2 EC50
T1 sequence (P21462 1-350): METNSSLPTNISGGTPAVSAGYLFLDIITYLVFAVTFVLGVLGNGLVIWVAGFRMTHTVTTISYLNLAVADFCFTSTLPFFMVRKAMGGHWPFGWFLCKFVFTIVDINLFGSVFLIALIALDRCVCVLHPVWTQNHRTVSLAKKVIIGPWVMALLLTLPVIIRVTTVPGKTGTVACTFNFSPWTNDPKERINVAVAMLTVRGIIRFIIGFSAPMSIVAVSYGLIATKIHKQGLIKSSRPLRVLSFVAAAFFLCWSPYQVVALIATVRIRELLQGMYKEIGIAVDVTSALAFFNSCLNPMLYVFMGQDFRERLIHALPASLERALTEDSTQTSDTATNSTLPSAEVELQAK
Method: (§1) FPR2 and FPR1 Cyclic Adenosine Monophosphate (cAMP) Assays. A mixture of forskolin (5 μM final for FPR2 or 10 μM final for FPR1) and IBMX (200 μM final) were added to 384-well Proxiplates (Perkin-Elmer) pre-dotted with test compounds in DMSO (1% final) at final concentrations in the range of 0.020 nM to 100 μM. Chinese Hamster Ovary cells (CHO) overexpressing human FPR1 or human FPR2 receptors were cultured in F-12 (Ham's) medium supplemented with 10% qualified FBS, 250 μg/ml zeocin and 300 μg/ml hygromycin (Life Technologies). Reactions were initiated by adding 2,000 human FPR2 cells per well or 4,000 human FPR1 cells per well in Dulbecco's PBS (with calcium and magnesium) (Life Technologies) supplemented with 0.1% BSA (Perkin-Elmer). The reaction mixtures were incubated for 30 min at room temperature. The level of intracellular cAMP was determined using the HTRF HiRange cAMP assay reagent kit (Cisbio) according to manufacturer's instruction. Solutions of cryptate conjugated anti-cAMP and d2 flurorophore-labelled cAMP were made in a supplied lysis buffer separately. Upon completion of the reaction, the cells were lysed with equal volume of the d2-cAMP solution and anti-cAMP solution. After a 1-h room temperature incubation, time-resolved fluorescence intensity was measured using the Envision (Perkin-Elmer) at 400 nm excitation and dual emission at 590 nm and 665 nm. A calibration curve was constructed with an external cAMP standard at concentrations ranging from 1 μM to 0.1 μM by plotting the fluorescent intensity ratio from 665 nm emission to the intensity from the 590 nm emission against cAMP concentrations. The potency and activity of a compound to inhibit cAMP production was then determined by fitting to a 4-parametric logistic equation from a plot of cAMP level versus compound concentrations.

[2] = target: T2, human FPR2 (Homo sapiens, UniProt P25090); experiment: FPR2 cyclic adenosine monophosphate (cAMP) assay; type: cell-based; conditions: CHO cells overexpressing human FPR2; forskolin 5 μM; inhibition of cAMP production; HTRF; read-out: hFPR2 cAMP2 EC50
T2 sequence (P25090 1-351): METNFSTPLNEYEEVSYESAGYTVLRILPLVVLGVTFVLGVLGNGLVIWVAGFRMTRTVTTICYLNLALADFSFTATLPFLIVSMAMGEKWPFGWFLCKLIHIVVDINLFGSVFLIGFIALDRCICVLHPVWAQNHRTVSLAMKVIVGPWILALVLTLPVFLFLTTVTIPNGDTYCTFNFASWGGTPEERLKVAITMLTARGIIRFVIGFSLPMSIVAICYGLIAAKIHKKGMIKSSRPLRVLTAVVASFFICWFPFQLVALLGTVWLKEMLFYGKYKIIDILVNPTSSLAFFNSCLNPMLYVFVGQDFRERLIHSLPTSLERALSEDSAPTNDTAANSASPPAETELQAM
Method: as §1

| SMILES | EC50 [1] [nM] | EC50 [2] [nM] |
| --- | --- | --- |
| COc1cc(F)c(-n2cc(-c3ccccc3)nc2NC(=O)c2ccc(OC(F)F)cc2)c(F)c1 [Example 1, N-[1-(2,6-Difluoro-4-methoxyphenyl)-4-phenyl-1H-imidazol-2-yl]-4-(difluoromethoxy)benzamide] | 200 | 4 |
| COc1ccc(-n2cc(-c3ccccc3)nc2NC(=O)c2ccc(OC(F)F)cc2)cc1 [Example 2, 4-(Difluoromethoxy)-N-[1-(4-methoxyphenyl)-4-phenyl-1H-imidazol-2-yl]benzamide] | 38 | 3 |
| COc1cccc(-c2cn(-c3c(F)cc(OC)cc3F)c(NC(=O)c3ccc(OC(F)F)cc3)n2)c1 [Example 3, N-[1-(2,6-Difluoro-4-methoxyphenyl)-4-(3-methoxyphenyl)-1H-imidazol-2-yl]-4-(difluoromethoxy)benzamide] | 88 | 8 |
| COc1cc(F)c(-n2cc(-c3ccc(F)cc3)nc2NC(=O)c2ccc(OC(F)F)cc2)c(F)c1 [Example 4, N-[1-(2,6-Difluoro-4-methoxyphenyl)-4-(4-fluorophenyl)-1H-imidazol-2-yl]-4-(difluoromethoxy)benzamide] | 400 | 11 |
| COc1cc(F)c(-n2cc(-c3ccc(Cl)c(C)c3)nc2NC(=O)c2ccc(OC(F)F)cc2)c(F)c1 [Example 5, N-[4-(4-Chloro-3-methylphenyl)-1-(2,6-difluoro-4-methoxyphenyl)-1H-imidazol-2-yl]-4-(difluoromethoxy)benzamide] | 140 | 47 |
| COc1cc(F)c(-n2cc(-c3ccc(C(F)(F)F)cc3)nc2NC(=O)c2ccc(OC(F)F)cc2)c(F)c1 [Example 6, N-[1-(2,6-Difluoro-4-methoxyphenyl)-4-[4-(trifluoromethyl)phenyl]-1H-imidazol-2-yl]-4-(difluoromethoxy)benzamide] | 120 | 76 |
| COc1cc(F)c(-n2cc(-c3ccc(OC(F)F)cc3)nc2NC(=O)c2ccc(OC(F)F)cc2)c(F)c1 [Example 7, N-[1-(2,6-Difluoro-4-methoxyphenyl)-4-[4-(difluoromethoxy)phenyl]-1H-imidazol-2-yl]-4-(difluoromethoxy)benzamide] | 190 | 33 |
| COc1cc(F)c(-n2c(NC(=O)c3ccc(OC(F)F)cc3)nc(-c3ccccc3)c2C)c(F)c1 [Example 8, N-[1-(2,6-Difluoro-4-methoxyphenyl)-5-methyl-4-phenyl-1H-imidazol-2-yl]-4-(difluoromethoxy)benzamide] | 230 | 8 |
| COc1cc(F)c(-n2cc(-c3ccc4ccccc4c3)nc2NC(=O)c2ccc(OC(F)F)cc2)c(F)c1 [Example 9, N-[1-(2,6-Difluoro-4-methoxyphenyl)-4-(naphthalen-2-yl)-1H-imidazol-2-yl]-4-(difluoromethoxy)benzamide] | 460 | 220 |
| COc1cc(F)c(-n2cc(-c3cccc(F)c3)nc2NC(=O)c2ccc(OC(F)F)cc2)c(F)c1 [Example 10, N-[1-(2,6-Difluoro-4-methoxyphenyl)-4-(3-fluorophenyl)-1H-imidazol-2-yl]-4-(difluoromethoxy)benzamide] | 200 | 7 |
| COc1cc(F)c(-n2cc(-c3ccc(Cl)cc3)nc2NC(=O)c2ccc(OC(F)F)cc2)c(F)c1 [Example 11, N-[4-(4-Chlorophenyl)-1-(2,6-difluoro-4-methoxyphenyl)-1H-imidazol-2-yl]-4-(difluoromethoxy)benzamide] | 140 | 24 |
| COc1cc(F)c(-n2cc(-c3cccc(Cl)c3)nc2NC(=O)c2ccc(OC(F)F)cc2)c(F)c1 [Example 12, N-[4-(3-Chlorophenyl)-1-(2,6-difluoro-4-methoxyphenyl)-1H-imidazol-2-yl]-4-(difluoromethoxy)benzamide] | 450 | 15 |
| COc1cc(F)c(-n2c(NC(=O)c3ccc(OC(F)F)cc3)nc(-c3ccc(Cl)cc3)c2C)c(F)c1 [Example 13, N-[4-(4-Chlorophenyl)-1-(2,6-difluoro-4 methoxyphenyl)-5-methyl-1H-imidazol-2-yl]-4-(difluoromethoxy)benzamide] | 550 | 53 |
| COc1ccc(-c2cn(-c3c(F)cc(OC)cc3F)c(NC(=O)c3ccc(OC(F)F)cc3)n2)cc1 [Example 14, N-[1-(2,6-Difluoro-4-methoxyphenyl)-4-(4-methoxyphenyl)-1H-imidazol-2-yl]-4-(difluoromethoxy)benzamide] | 160 | 39 |
| COc1cc(F)c(-n2cc(-c3ccc(C)cc3)nc2NC(=O)c2ccc(OC(F)F)cc2)c(F)c1 [Example 15, N-[1-(2,6-Difluoro-4-methoxyphenyl)-4-(4-methylphenyl)-1H-imidazol-2-yl]-4-(difluoromethoxy)benzamide] | 130 | 23 |
| COc1cc(F)c(-n2cc(-c3ccc(C#N)cc3)nc2NC(=O)c2ccc(OC(F)F)cc2)c(F)c1 [Example 16, N-[4-(4-Cyanophenyl)-1-(2,6-difluoro-4-methoxyphenyl)-1H-imidazol-2-yl]-4-(difluoromethoxy)benzamide] | 230 | 27 |
| COc1cc(F)c(-n2cc(-c3cccc(C#N)c3)nc2NC(=O)c2ccc(OC(F)F)cc2)c(F)c1 [Example 17, N-[4-(3-Cyanophenyl)-1-(2,6-difluoro-4-methoxyphenyl)-1H-imidazol-2-yl]-4-(difluoromethoxy)benzamide] | 46 | 5 |
| COc1cc(F)c(-n2cc(-c3ccc(Cl)c(Cl)c3)nc2NC(=O)c2ccc(OC(F)F)cc2)c(F)c1 [Example 18, N-[4-(3,4-Dichlorophenyl)-1-(2,6-difluoro-4-methoxyphenyl)-1H-imidazol-2-yl]-4-(difluoromethoxy)benzamide] | 400 | 51 |
| COc1ccc(-n2cc(-c3ccc4c(c3)CCO4)nc2NC(=O)c2ccc(OC(F)F)cc2)cc1 [Example 19, 4-(Difluoromethoxy)-N-[4-(2,3-dihydro-1-benzofuran-5-yl)-1-(4-methoxyphenyl)-1H-imidazol-2-yl]benzamide] | 93 | 28 |
| COc1ccc(-n2cc(-c3ccnc(Cl)c3)nc2NC(=O)c2ccc(OC(F)F)cc2)cc1 [Example 20, N-[4-(2-Chloropyridin-4-yl)-1-(4-methoxyphenyl)-1H-imidazol-2-yl]-4-(difluoromethoxy)benzamide] | 19 | 5 |
| COc1ccc(-n2cc(-c3ccc(F)cc3F)nc2NC(=O)c2ccc(OC(F)F)cc2)cc1 [Example 21, 4-(Difluoromethoxy)-N-[4-(2,4-difluorophenyl)-1-(4-methoxyphenyl)-1H-imidazol-2-yl]benzamide] | 76 | 29 |
| COc1ccc(-n2cc(-c3ccc4sccc4c3)nc2NC(=O)c2ccc(OC(F)F)cc2)cc1 [Example 22, N-[4-(1-Benzothiophen-5-yl)-1-(4-methoxyphenyl)-1H-imidazol-2-yl]-4-(difluoromethoxy)benzamide] | 140 | 86 |
| COc1ccc(-n2cc(-c3nc4ccccc4s3)nc2NC(=O)c2ccc(OC(F)F)cc2)cc1 [Example 23, N-[4-(1,3-Benzothiazol-2-yl)-1-(4-methoxyphenyl)-1H-imidazol-2-yl]-4-(difluoromethoxy)benzamide] | 44 | 28 |
| COc1ccc(-n2cc(-c3nccs3)nc2NC(=O)c2ccc(OC(F)F)cc2)cc1 [Example 24, 4-(Difluoromethoxy)-N-[1-(4-methoxyphenyl)-4-(1,3-thiazol-2-yl)-1H-imidazol-2-yl]benzamide] | 110 | 9 |
